Tests used:
Assay type in all cases: cell-based
CHL-1 = test: Cell viability CellTiter-Glo, CHL-1; settings: Homo sapiens; CHL-1, melanoma
Experimental: (§1) Cell viability was measured by using the Promega CellTiter-Glo kit, the kit reflected cell viability by directly measuring intracellular ATP content. Different cancer cells were cultured in culture medium, and the 50% inhibitory concentration IC50 of the compound SJ2858 was measured by Promega CellTiter-Glo kit. The name source and culture condition of each tumor cell line were as follows:
Cell line CHL-1 (ATCC, No. CRL-9446) was cultured in DMEM medium containing 10% fetal bovine serum (+P/S);

OCI-AML-5 = test: Cell viability CellTiter-Glo, OCI-AML-5; settings: Homo sapiens; OCI-AML-5, leukemia
Experimental: as §1
Cell line OCI-AML-5 (DSMZ, No. ACC-247) was cultured in alpha-MEM medium containing 20% fetal bovine serum and 20% volume fraction of 5637 cell line adjusted medium (+P/S);

ACHN = test: Cell viability CellTiter-Glo, ACHN; settings: Homo sapiens, kidney cancer
Experimental: as §1
Cell line ACHN (ATCC, No. CRL-1611) was cultured in EMEM medium containing 10% fetal bovine serum (+P/S);

OCI-LY-19 = test: Cell viability CellTiter-Glo, OCI-LY-19; settings: Homo sapiens, OCI-LY19; OCI-LY-19, lymphoma
Experimental: as §1
Cell line OCI-LY-19 (DSMZ, code ACC-528) was cultured in 80-90% alpha-MEM medium containing 10-20% h.i. FBS (+P/S);

ATN-1 = test: Cell viability CellTiter-Glo, ATN-1; settings: Homo sapiens; ATN-1, leukemia
Experimental: as §1
Cell line ATN-1 (RIKEN, No. RBRC-RCB1440) was cultured in RPMI1640 medium containing 10% fetal bovine serum and 0.1 mM NEAA (+P/S);

[1] = test system: oxidative phosphorylation pathway of mitochondria; test: Cellular oxygen consumption (OCR), XFe metabolic analysis system; settings: NCI-H82 cell; 73.2 μM; within half an hour; FIG. 1
Experimental: The oxygen required by cell was mainly consumed in the mitochondria respiratory chain, so the measurement of cellular oxygen consumption (OCR, oxygen consumption rate) could directly reflect the activity of the oxidative phosphorylation pathway of mitochondria. In this experiment, the XFe metabolic analysis system was used to measure the oxygen consumption of NCI-H82 cell in the presence or absence of Compound SJ2858 (baicalein) and Compound SJ2775 (baicalin).
Rotenone (abbreviated as RO, 0.5 μM) is a known inhibitor of mitochondria oxidative phosphorylation pathway complex I, Antimycin A (abbreviated as AA, 0.5 μM) is a known inhibitor of mitochondria oxidative phosphorylation pathway complex III. Compound SJ2858, 73.2 μM; Compound SJ2775, 118.2 μM.

U-87 MG = test: Cell viability CellTiter-Glo, U-87 MG; settings: Homo sapiens, brain cancer
Experimental: as §1
Cell line U-87MG (ATCC, No. HTB-14) was cultured in EMEM medium containing 10% fetal bovine serum (+P/S);

NCI-H 1793 = test: Cell viability CellTiter-Glo, NCI-H 1793; settings: Homo sapiens, NCI-H1793; NCI-H 1793, lung cancer
Experimental: as §1
Cell line NCI-H1793 (ATCC, No. CRL-5896) was cultured in HITES medium containing 5% fetal bovine serum (+P/S);

COLO 320HSR = test: Cell viability CellTiter-Glo, COLO 320HSR; settings: Homo sapiens, intestinal cancer
Experimental: as §1
Cell line COLO 320HSR (ATCC, No. CCL-220.1) was cultured in RPMI1640 medium containing 10% fetal bovine serum (+P/S);

NCI-H82 cell = test: Cell viability, Promega CellTiter-Glo, NCI-H82 cell; settings: Homo sapiens, NCI-H82; read-out: IC50 of cell viability inhibition
Experimental: Cell viability was detected by using the Promega CellTiter-Glo kit, the kit reflected cell viability by directly measuring intracellular ATP content. […] Daoy cell and NCI-H82 cell were cultured in DMEM containing 10% FBS (plus p/s).

SNU-398 = test: Cell viability CellTiter-Glo, SNU-398; settings: Homo sapiens; SNU-398, liver cancer
Experimental: as §1
Cell line SNU-398 (ATCC, No. CRL-2233) was cultured in RPMI1640 medium (+P/S); containing 10% fetal bovine serum (+P/S);

22RV1 = test: Cell viability CellTiter-Glo, 22RV1; settings: Homo sapiens; 22RV1, prostate cancer
Experimental: as §1
Cell line 22RV1 (ATCC, No. CRL-2505) was cultured in RPMI1640 medium containing 10% fetal bovine serum (+P/S);

HCC15 = test: Cell viability CellTiter-Glo, HCC15; settings: HCC15, lung cancer
Experimental: as §1
Cell line HCC15 (KCLB, No. 70015) was cultured in RPMI1640 medium containing 10% fetal bovine serum (+P/S);

D283 Med = test: Cell viability CellTiter-Glo, D283 Med; settings: Homo sapiens, brain cancer
Experimental: as §1
Cell line D283 Med (ATCC, No. HTB-185) was cultured in EMEM medium containing 10% fetal bovine serum (+P/S);

NCI-H1155 = test: Cell viability CellTiter-Glo, NCI-H1155; settings: Homo sapiens; NCI-H1155, lung cancer
Experimental: as §1
Cell line NCI-H1155 (ATCC, No. CRL-5818) was cultured in serum-free ACL-4 medium (+P/S);

G-361 = test: Cell viability CellTiter-Glo, G-361; settings: Homo sapiens; G-361, melanoma
Experimental: as §1
Cell line G-361 (ATCC, No. CRL-1424) was cultured in McCoy's 5a medium containing 10% fetal bovine serum (+P/S).

DU 145 = test: Cell viability CellTiter-Glo, DU 145; settings: Homo sapiens; DU 145, prostate cancer
Experimental: as §1
Cell line DU 145 (ATCC, No. HTB-81) was cultured in EMEM medium containing 10% fetal bovine serum (+P/S);

BT-549 = test: Cell viability CellTiter-Glo, BT-549; settings: Homo sapiens; BT-549, breast cancer
Experimental: as §1
Cell line BT-549 (ATCC, No. HTB-122) was cultured in RPMI1640 medium containing 10% fetal bovine serum and 0.023 IU/ml human insulin (+P/S);

A-375 = test: Cell viability CellTiter-Glo, A-375; settings: Homo sapiens; A-375, melanoma
Experimental: as §1
Cell line A-375 (ATCC, No. CRL-1619) was cultured in DMEM medium containing 10% fetal bovine serum (+P/S);

Work on `O=c1cc(-c2ccccc2)oc2cc(O)c(O)c(O)c12` [Compound SJ2858, baicalein] yielded an IC50 (CHL-1) of 9.5 µM, an IC50 (OCI-AML-5) of 45.1 µM and an IC50 (ACHN) of 17.7 µM. For the same molecule, the IC50 (OCI-LY-19) was 52.3 µM, the IC50 (ATN-1) was 25.4 µM and the “Inhibition of oxygen consumption (in words)” value [1] was “significantly inhibit”. It also gave an IC50 (U-87 MG) of 19 µM, an IC50 (NCI-H 1793) of 35.2 µM and an IC50 (COLO 320HSR) of 17.8 µM. It also gave an IC50 (NCI-H82 cell) of 15.6 µM, an IC50 (SNU-398) of 13 µM and an IC50 (22RV1) of 25.9 µM. For the same molecule, the IC50 (HCC15) was 18.9 µM, the IC50 (D283 Med) was 12.9 µM and the IC50 (NCI-H1155) was 19.6 µM. For the same molecule, the IC50 (G-361) was 33.6 µM, the IC50 (DU 145) was 37.8 µM and the IC50 (BT-549) was 18.1 µM. For the same molecule, the IC50 (A-375) was 10.6 µM.

Reference: US20230098254A1, “SCUTELLARIAE RADIX COMPOUNDS AND USE THEREOF FOR INHIBITING OXIDATIVE PHOSPHORYLATION PATHWAY OF MITOCHONDRIA” (priority 2020, published 2023)
